Experiments:
VEGFR2 (KDR) = biological target: T1, VEGFR2 (KDR) (Homo sapiens, UniProt P35968); assay: Kinase inhibition dosage effect, KDR; assay type: biochemical
T1 construct: purchased Invitrogen

PDGFR-β [1] = biological target: T2, PDGFR-β (Homo sapiens, UniProt P09619); assay: Kinase inhibition dosage effect, PDGFR-β; assay type: biochemical
T2 construct: purchased Upstate

AKT2 = biological target: T3, AKT2 (Homo sapiens, UniProt P31751); assay: Inhibition specificity, AKT2; assay type: biochemical; conditions: 5000 nM, average of two tests; read-out: Average Inhibition Rate (%) AKT2
T3 construct: purchased INVITROGEN

AURORA-B = biological target: T4, AURORA-B (Homo sapiens, UniProt Q96GD4); assay: Inhibition specificity, AURORA-B; assay type: biochemical; conditions: 5000 nM, average of two tests; read-out: Average Inhibition Rate (%) AURORA-B
T4 construct: purchased CARNA

BRAF = biological target: T5, BRAF (Homo sapiens, UniProt P15056); assay: Inhibition specificity, BRAF; assay type: biochemical; conditions: 5000 nM, average of two tests; read-out: Average Inhibition Rate (%) BRAF
T5 construct: purchased UPSTATE

CDK2 = biological target: T6, CDK2 (Homo sapiens, UniProt P24941); assay: Inhibition specificity, CDK2; assay type: biochemical; conditions: 5000 nM, average of two tests; read-out: Average Inhibition Rate (%) CDK2
T6 construct: purchased UPSTATE

CHEK1 = biological target: T7, CHEK1 (Homo sapiens, UniProt O14757); assay: Inhibition specificity, CHEK1; assay type: biochemical; conditions: 5000 nM, average of two tests; read-out: Average Inhibition Rate (%) CHEK1
T7 construct: purchased CARNA

DMPK = biological target: T8, DMPK (Homo sapiens, UniProt Q09013); assay: Inhibition specificity, DMPK; assay type: biochemical; conditions: 5000 nM, average of two tests; read-out: Average Inhibition Rate (%) DMPK
T8 construct: purchased INVITROGEN

EGFR = EGFR (Homo sapiens, UniProt P00533); assay: Inhibition specificity, EGFR; assay type: biochemical; conditions: 5000 nM, average of two tests; read-out: Average Inhibition Rate (%) EGFR
FGFR2 = biological target: T9, FGFR2 (Homo sapiens, UniProt P21802); assay: Inhibition specificity, FGFR2; assay type: biochemical; conditions: 5000 nM, average of two tests; read-out: Average Inhibition Rate (%) FGFR2
T9 construct: purchased CARNA

GSK-3-β = biological target: T10, GSK-3-β (Homo sapiens, UniProt P49841); assay: Inhibition specificity, GSK-3-β; assay type: biochemical; conditions: 5000 nM, average of two tests; read-out: Average Inhibition Rate (%) GSK-3-β
T10 construct: purchased UPSTATE

JAK2 = biological target: T11, JAK2 (Homo sapiens, UniProt O60674); assay: Inhibition specificity, JAK2; assay type: biochemical; conditions: 5000 nM, average of two tests; read-out: Average Inhibition Rate (%) JAK2
T11 construct: purchased INVITROGEN

KDR (VEGFR2) = biological target: T12, KDR (VEGFR2) (Homo sapiens, UniProt P35968); assay: Inhibition specificity, KDR; assay type: biochemical; conditions: 5000 nM, average of two tests
T12 construct: purchased Invitrogen

KIT = biological target: T13, KIT (Homo sapiens, UniProt P10721); assay: Inhibition specificity, KIT; assay type: biochemical; conditions: 5000 nM, average of two tests; read-out: Average Inhibition Rate (%) KIT
T13 construct: purchased INVITROGEN

MAPK3 = biological target: T14, MAPK3 (Homo sapiens, UniProt P27361); assay: Inhibition specificity, MAPK3; assay type: biochemical; conditions: 5000 nM, average of two tests; read-out: Average Inhibition Rate (%) MAPK3
T14 construct: purchased INVITROGEN

MEK1 = biological target: T15, MEK1 (Homo sapiens, UniProt Q02750); assay: Inhibition specificity, MEK1; assay type: biochemical; conditions: 5000 nM, average of two tests; read-out: Average Inhibition Rate (%) MEK1
T15 construct: purchased UPSTATE

MET = biological target: T16, MET (Homo sapiens, UniProt P08581); assay: Inhibition specificity, MET; assay type: biochemical; conditions: 5000 nM, average of two tests; read-out: Average Inhibition Rate (%) MET
T16 construct: purchased INVITROGEN

PDGFR-β [2] = biological target: T2, PDGFR-β; assay: Inhibition specificity, PDGFR-β; assay type: biochemical; conditions: 5000 nM, average of two tests; read-out: Average Inhibition Rate (%) PDGFR-β
PI3K-α = biological target: T17, PI3K-α (Homo sapiens, UniProt P42336); assay: Inhibition specificity, PI3K-α (ADP-Glo); assay type: biochemical; conditions: 5000 nM, average of two tests; read-out: Average Inhibition Rate (%) PI3K-α
T17 construct: purchased INVITROGEN

PKC-α = biological target: T18, PKC-α (Homo sapiens, UniProt P17252); assay: Inhibition specificity, PKC-α; assay type: biochemical; conditions: 5000 nM, average of two tests; read-out: Average Inhibition Rate (%) PKC-α
T18 construct: purchased INVITROGEN

ROCK1 = biological target: T19, ROCK1 (Homo sapiens, UniProt Q13464); assay: Inhibition specificity, ROCK1; assay type: biochemical; conditions: 5000 nM, average of two tests; read-out: Average Inhibition Rate (%) ROCK1
T19 construct: purchased CARNA

SRC = biological target: T20, SRC (Homo sapiens, UniProt P12931); assay: Inhibition specificity, SRC; assay type: biochemical; conditions: 5000 nM, average of two tests; read-out: Average Inhibition Rate (%) SRC
T20 construct: purchased INVITROGEN

SYK = biological target: T21, SYK (Homo sapiens, UniProt P43405); assay: Inhibition specificity, SYK; assay type: biochemical; conditions: 5000 nM, average of two tests; read-out: Average Inhibition Rate (%) SYK
T21 construct: purchased BPS

corneal angiogenesis = assay: Rabbit corneal chemical burn model; assay type: in vivo, white rabbits; conditions: 100 uM subconjunctival injection then drops twice a day, 7 days
Description: This test tested in total 5 white rabbits who were 5-6 month old. After narcotizing, in the center of the cornea, the right eye was treated with a 6 mm diameter of round filter paper which was soaked with 0.1M NaOH, induced for 3 min to produce chemical burn modeling.

T1 sequence (P35968 20-1356, species assumed): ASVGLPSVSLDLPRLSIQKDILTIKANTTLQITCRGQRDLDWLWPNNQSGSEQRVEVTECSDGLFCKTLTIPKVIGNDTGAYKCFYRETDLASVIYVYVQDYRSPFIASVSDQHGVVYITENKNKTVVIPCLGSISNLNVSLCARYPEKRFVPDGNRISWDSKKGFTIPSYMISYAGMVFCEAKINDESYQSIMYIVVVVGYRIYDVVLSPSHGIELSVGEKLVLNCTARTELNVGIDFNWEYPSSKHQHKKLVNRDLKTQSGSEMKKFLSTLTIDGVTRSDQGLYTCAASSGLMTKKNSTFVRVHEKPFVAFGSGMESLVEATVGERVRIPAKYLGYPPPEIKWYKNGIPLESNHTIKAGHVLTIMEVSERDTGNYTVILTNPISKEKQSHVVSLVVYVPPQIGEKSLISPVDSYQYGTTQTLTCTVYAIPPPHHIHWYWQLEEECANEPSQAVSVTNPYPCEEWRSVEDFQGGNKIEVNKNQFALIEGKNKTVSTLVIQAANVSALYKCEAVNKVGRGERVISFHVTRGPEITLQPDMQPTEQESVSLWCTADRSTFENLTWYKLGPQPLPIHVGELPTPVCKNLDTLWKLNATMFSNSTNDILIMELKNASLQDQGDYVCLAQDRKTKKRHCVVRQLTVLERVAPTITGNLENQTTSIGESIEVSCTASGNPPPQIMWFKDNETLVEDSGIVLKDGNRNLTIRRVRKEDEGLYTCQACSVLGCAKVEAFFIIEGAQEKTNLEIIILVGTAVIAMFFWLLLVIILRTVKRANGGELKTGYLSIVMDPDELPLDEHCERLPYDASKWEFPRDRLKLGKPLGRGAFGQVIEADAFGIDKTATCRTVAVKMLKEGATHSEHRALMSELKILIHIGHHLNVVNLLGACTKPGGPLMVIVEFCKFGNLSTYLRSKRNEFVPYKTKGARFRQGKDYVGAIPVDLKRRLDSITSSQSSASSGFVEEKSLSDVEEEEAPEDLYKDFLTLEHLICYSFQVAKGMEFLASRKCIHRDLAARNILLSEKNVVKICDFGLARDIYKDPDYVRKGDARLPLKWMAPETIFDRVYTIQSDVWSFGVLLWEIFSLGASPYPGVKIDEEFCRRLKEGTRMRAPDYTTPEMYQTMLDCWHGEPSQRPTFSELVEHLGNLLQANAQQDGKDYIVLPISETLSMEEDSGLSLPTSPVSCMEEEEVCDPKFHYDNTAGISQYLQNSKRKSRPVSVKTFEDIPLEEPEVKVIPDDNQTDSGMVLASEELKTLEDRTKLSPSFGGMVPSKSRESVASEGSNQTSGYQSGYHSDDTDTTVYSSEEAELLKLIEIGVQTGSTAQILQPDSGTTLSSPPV
T2 sequence (P09619 33-1106, species assumed): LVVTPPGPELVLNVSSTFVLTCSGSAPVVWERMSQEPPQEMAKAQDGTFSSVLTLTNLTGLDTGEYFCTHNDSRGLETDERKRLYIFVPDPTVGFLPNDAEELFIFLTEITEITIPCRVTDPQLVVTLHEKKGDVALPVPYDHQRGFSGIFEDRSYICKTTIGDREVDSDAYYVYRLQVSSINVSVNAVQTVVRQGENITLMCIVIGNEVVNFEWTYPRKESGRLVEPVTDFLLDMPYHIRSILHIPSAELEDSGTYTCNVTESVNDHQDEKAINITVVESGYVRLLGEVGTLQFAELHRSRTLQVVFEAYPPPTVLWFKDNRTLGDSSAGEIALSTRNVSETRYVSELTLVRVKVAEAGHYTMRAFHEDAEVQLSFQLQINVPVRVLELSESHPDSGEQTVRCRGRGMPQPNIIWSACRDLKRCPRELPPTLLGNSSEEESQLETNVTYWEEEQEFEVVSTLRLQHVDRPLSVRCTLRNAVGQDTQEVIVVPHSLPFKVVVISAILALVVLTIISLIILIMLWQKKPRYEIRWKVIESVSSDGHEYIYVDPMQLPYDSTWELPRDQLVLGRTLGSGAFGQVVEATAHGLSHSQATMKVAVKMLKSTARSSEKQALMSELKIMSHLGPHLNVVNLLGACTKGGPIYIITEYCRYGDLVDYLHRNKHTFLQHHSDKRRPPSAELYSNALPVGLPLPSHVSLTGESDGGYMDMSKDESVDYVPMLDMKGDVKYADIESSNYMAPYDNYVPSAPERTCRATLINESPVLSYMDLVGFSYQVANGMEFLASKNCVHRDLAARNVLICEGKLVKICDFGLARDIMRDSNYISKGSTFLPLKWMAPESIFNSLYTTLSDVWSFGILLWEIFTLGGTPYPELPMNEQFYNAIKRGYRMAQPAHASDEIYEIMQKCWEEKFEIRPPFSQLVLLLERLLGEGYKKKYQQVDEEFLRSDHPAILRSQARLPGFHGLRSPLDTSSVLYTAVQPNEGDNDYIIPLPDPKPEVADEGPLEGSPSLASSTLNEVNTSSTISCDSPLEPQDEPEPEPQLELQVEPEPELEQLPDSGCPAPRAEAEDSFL
T12 sequence (P35968 20-1356, species assumed): as the sequence (P35968 20-1356, species assumed) above
T15 sequence (Q02750 whole entry, species assumed): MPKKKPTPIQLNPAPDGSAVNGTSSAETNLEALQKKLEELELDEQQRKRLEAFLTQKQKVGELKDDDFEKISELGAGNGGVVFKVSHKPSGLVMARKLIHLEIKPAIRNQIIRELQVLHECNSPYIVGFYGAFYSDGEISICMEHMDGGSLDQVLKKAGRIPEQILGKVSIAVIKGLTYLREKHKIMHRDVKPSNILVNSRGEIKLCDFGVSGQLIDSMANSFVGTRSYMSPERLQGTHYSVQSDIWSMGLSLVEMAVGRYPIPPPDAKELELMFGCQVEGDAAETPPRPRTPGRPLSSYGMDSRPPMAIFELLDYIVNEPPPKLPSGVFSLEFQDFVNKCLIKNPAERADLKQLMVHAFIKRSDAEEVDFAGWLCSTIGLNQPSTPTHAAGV
T9 sequence (P21802 22-821, species assumed): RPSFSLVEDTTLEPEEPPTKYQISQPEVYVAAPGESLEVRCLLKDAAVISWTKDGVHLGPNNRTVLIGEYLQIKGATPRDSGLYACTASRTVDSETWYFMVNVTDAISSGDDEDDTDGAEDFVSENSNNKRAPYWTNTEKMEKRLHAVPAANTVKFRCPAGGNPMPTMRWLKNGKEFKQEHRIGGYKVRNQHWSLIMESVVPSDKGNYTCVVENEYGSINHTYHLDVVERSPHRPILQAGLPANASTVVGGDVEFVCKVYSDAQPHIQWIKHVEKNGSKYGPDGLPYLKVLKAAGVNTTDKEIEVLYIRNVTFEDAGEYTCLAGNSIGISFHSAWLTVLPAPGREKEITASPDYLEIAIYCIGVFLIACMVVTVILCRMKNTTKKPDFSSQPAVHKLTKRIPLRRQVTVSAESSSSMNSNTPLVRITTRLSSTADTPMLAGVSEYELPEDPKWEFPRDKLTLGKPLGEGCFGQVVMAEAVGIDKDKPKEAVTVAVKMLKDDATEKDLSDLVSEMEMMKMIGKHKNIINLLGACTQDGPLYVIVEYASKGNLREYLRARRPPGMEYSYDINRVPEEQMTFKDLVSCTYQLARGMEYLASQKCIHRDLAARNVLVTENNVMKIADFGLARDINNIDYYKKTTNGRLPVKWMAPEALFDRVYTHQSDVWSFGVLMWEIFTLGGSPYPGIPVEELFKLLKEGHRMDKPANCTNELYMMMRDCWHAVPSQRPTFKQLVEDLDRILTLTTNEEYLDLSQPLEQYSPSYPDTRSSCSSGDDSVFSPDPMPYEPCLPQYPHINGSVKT
T20 sequence (P12931 whole entry, species assumed): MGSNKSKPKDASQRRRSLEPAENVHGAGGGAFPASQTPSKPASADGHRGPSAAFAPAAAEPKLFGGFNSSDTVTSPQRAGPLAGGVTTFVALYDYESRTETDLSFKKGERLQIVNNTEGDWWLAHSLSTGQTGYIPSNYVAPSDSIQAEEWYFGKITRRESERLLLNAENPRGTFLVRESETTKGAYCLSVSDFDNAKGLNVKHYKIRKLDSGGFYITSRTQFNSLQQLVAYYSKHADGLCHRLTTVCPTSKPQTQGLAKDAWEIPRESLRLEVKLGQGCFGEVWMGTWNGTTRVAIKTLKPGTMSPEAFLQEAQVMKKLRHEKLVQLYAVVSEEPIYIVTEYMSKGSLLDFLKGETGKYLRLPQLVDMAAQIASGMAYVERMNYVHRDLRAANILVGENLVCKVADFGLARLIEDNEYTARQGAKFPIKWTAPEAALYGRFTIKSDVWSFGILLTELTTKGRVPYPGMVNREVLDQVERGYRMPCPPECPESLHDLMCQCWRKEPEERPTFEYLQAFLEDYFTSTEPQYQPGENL

Nc1nccc(Oc2ccc3c(C(=O)Nc4cccc(C(F)(F)F)c4)cccc3n2)n1 [Compound 2-2]
inhibition activity on KDR (in words) (VEGFR2 (KDR)): good inhibition activity
IC50 (VEGFR2 (KDR); [ATP] 80 μM, 3 hr): 0.00731 µM
Inhibition Rate on KDR (%) (VEGFR2 (KDR); concentration 0.0002823 (uM)): 5.09%
Inhibition Rate on KDR (%) (VEGFR2 (KDR); concentration 0.0008468 (uM)): 11.82%
Inhibition Rate on KDR (%) (VEGFR2 (KDR); concentration 0.0025403 (uM)): 25.59%
Inhibition Rate on KDR (%) (VEGFR2 (KDR); concentration 0.0076208 (uM)): 49.36%
Inhibition Rate on KDR (%) (VEGFR2 (KDR); concentration 0.0228624 (uM)): 78.25%
Inhibition Rate on KDR (%) (VEGFR2 (KDR); concentration 0.0685871 (uM)): 90.14%
Inhibition Rate on KDR (%) (VEGFR2 (KDR); concentration 0.2057613 (uM)): 92.95%
Inhibition Rate on KDR (%) (VEGFR2 (KDR); concentration 0.6172840 (uM)): 94.82%
Inhibition Rate on KDR (%) (VEGFR2 (KDR); concentration 1.8518519 (uM)): 97.30%
Inhibition Rate on KDR (%) (VEGFR2 (KDR); concentration 5.5555556 (uM)): 96.50%
Inhibition Rate on KDR (%) (VEGFR2 (KDR); concentration 16.6666667 (uM)): 94.47%
Inhibition Rate on KDR (%) (VEGFR2 (KDR); concentration 50 (uM)): 95.99%
Hill KDR (VEGFR2 (KDR); dose-effect curve fit): 1.175
inhibition activity on PDGFR-β (in words) (PDGFR-β [1]): good inhibition activity
IC50 (PDGFR-β [1]; [ATP] 30 μM, 3 hr): 0.15 µM
Inhibition Rate on PDGFR-β (%) (PDGFR-β [1]; concentration 0.0002823 (uM)): 0.62%
Inhibition Rate on PDGFR-β (%) (PDGFR-β [1]; concentration 0.0008468 (uM)): 0.49%
Inhibition Rate on PDGFR-β (%) (PDGFR-β [1]; concentration 0.0025403 (uM)): −0.84%
Inhibition Rate on PDGFR-β (%) (PDGFR-β [1]; concentration 0.0076208 (uM)): 2.85%
Inhibition Rate on PDGFR-β (%) (PDGFR-β [1]; concentration 0.0228624 (uM)): 15.13%
Inhibition Rate on PDGFR-β (%) (PDGFR-β [1]; concentration 0.0685871 (uM)): 34.21%
Inhibition Rate on PDGFR-β (%) (PDGFR-β [1]; concentration 0.2057613 (uM)): 55.90%
Inhibition Rate on PDGFR-β (%) (PDGFR-β [1]; concentration 0.6172840 (uM)): 78.29%
Inhibition Rate on PDGFR-β (%) (PDGFR-β [1]; concentration 1.8518519 (uM)): 91.57%
Inhibition Rate on PDGFR-β (%) (PDGFR-β [1]; concentration 5.5555556 (uM)): 96.43%
Inhibition Rate on PDGFR-β (%) (PDGFR-β [1]; concentration 16.6666667 (uM)): 97.95%
Inhibition Rate on PDGFR-β (%) (PDGFR-β [1]; concentration 50 (uM)): 98.80%
Hill PDGFR-β (PDGFR-β [1]; dose-effect curve fit): 0.92
inhibition at 5 µM (AKT2): -1.2%
inhibition at 5 µM (AURORA-B): 13.6%
inhibition at 5 µM (BRAF): 37.4%
inhibition at 5 µM (CDK2): 2.02%
inhibition at 5 µM (CHEK1): 0.695%
inhibition at 5 µM (DMPK): 4.5%
inhibition at 5 µM (EGFR): -0.625%
inhibition at 5 µM (FGFR2): > 61%
inhibition at 5 µM (GSK-3-β): 0.555%
inhibition at 5 µM (JAK2): 7.83%
Average Inhibition Rate (%) KDR (KDR (VEGFR2); 5 µM): 100.1%
inhibition at 5 µM (KDR (VEGFR2); read-out: Average Inhibition Rate (%) KDR): 100%
inhibition at 5 µM (KIT): ~92%
inhibition at 5 µM (MAPK3): 1.12%
inhibition at 5 µM (MEK1): 4.96%
inhibition at 5 µM (MET): 2.46%
inhibition at 5 µM (PDGFR-β [2]): ~97%
inhibition at 5 µM (PI3K-α): -7.1%
inhibition at 5 µM (PKC-α): 2.63%
inhibition at 5 µM (ROCK1): 1.39%
inhibition at 5 µM (SRC): ~65%
inhibition at 5 µM (SYK): -5.87%
effect on corneal angiogenesis (in words, FIG. 12) (corneal angiogenesis): obviously reduces corneal angiogenesis

From patent publication US9540381B2, “Anti-angiogenesis compound, intermediate and use thereof” (Guangzhou KangRui Biological Pharmaceutical Technology Co., …, priority 2013, dated 2017)
